The results in this text go back to patent publication US9056832B2, “Pyridine compounds and the users thereof” (Purdue Pharma L.P., priority 2010, dated 2015).

Each structure is given as a SMILES string.

human Nav1.7, sequence (Q15858 other isoform, or with tags, fused parts or gaps): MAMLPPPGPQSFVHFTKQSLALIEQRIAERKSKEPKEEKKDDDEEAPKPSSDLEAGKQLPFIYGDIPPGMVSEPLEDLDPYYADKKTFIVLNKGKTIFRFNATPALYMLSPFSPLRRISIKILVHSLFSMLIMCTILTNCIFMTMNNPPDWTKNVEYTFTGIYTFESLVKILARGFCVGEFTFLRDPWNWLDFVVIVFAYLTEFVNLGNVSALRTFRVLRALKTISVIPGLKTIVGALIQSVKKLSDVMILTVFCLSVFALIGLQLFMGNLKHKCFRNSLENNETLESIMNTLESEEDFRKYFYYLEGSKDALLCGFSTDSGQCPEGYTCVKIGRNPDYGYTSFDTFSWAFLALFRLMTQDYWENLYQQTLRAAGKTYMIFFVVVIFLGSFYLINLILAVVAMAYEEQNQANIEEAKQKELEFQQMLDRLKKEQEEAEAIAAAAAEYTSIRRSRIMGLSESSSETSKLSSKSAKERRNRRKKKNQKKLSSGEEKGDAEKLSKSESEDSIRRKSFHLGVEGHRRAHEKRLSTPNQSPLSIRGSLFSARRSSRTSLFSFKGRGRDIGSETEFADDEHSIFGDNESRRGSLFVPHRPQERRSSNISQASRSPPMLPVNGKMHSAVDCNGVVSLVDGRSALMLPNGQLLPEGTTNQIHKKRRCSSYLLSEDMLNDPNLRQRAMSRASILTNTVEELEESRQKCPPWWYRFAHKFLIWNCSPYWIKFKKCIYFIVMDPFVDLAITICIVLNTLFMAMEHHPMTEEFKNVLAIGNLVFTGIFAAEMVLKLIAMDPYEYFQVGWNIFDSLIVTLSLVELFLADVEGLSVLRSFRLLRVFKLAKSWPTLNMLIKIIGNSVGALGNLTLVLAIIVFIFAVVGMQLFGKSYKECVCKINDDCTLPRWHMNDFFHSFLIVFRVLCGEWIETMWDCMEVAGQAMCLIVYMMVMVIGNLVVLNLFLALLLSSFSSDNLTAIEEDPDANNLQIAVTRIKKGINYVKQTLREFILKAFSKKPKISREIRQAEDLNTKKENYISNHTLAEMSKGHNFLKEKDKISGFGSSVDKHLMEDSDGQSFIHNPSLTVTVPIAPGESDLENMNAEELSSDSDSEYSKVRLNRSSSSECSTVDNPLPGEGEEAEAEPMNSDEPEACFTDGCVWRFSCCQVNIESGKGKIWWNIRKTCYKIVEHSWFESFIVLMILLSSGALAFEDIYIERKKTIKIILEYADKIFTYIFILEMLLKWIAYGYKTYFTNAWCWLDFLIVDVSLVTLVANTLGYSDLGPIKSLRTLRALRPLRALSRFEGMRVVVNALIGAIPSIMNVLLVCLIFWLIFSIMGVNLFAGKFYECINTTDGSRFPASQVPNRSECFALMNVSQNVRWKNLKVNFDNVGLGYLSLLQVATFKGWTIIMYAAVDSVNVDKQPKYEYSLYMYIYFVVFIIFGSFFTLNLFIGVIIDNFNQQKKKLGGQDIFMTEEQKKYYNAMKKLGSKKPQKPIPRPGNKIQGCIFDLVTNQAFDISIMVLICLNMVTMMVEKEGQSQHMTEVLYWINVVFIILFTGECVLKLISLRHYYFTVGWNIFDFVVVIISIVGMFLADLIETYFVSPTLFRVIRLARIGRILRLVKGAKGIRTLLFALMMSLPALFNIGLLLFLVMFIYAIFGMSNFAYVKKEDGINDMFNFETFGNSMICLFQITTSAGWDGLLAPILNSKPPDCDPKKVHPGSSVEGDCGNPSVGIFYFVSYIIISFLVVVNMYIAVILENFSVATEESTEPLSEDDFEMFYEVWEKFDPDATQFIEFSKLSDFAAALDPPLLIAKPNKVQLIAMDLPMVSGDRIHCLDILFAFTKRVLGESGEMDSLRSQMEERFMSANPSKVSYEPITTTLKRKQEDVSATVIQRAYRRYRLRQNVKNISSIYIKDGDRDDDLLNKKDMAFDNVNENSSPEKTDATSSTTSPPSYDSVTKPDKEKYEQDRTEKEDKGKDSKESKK

The first assay has as its target human Nav1.7 (Homo sapiens (Human), UniProt Q15858). Put plainly: FLIPR or FLIPR TETRA sodium dye assay with KCl and test article pre-incubation. Format: cell-based. The note with it: read-out: Nav1.7 IC50 (μM) ± SEM.
In general, IC50 refers to the point on the concentration scale where inhibition reaches its midpoint. As for `CN(c1ccc(C(=O)O)cc1)c1cc(C(=O)O)nc(-c2ccc(Oc3ccc(F)cc3)cc2)c1` [compound 117, 4-((4-carboxyphenyl)(methy)amino)-6-(4-(4-fluorophenoxy)phenyl) picolinic acid], the IC50 was greater than 20 µM. In the case of `N#CCCN(c1ccccc1)c1cc(C(=O)O)nc(-c2ccc(Oc3ccc(F)cc3)cc2)c1` [compound 118, 4-((2-cyanoethyl) (phenyl)amino)-6-(4-(4fluorophenoxy)phenyl)picolinic acid], the IC50 was 2.5 ± 0.3 µM. For the molecule `CN(c1ccc(C(=O)O)cc1)c1cc(-c2ccc(Oc3ccc(F)cc3)cc2)cc(C(=O)O)n1` [compound 120, 6-((4-carboxyphenyl) (methy)amino)-4-(4-(4-fluorophenoxy)phenyl) picolinic acid], the IC50 was determined as 9.3 ± 0.54 µM.

Turning to `NC(=O)c1cc(C2=CCNCC2)cc(-c2ccc(Oc3ccc(F)cc3)cc2)n1` [compound 122, 6-(4-(4-fluorophenoxy)phenyl)-1′,2′,3′,6′-tetrahydro-[4,4'-bipyridine]-2-carboxamide], the IC50 stood at 0.14 ± 0.03 µM. As for `O=S(=O)(Nc1ccc(F)cc1)c1ccc(-c2cccc([C@H](O)CO)n2)cc1` [compound 124, (S)-4-(6-(1,2-dihydroxyethyl)pyridin-2-yl)-N-(4-fluorophenyl) benzenesulfonamide], the IC50 was 2.5 ± 0.34 µM. Regarding `N#Cc1ccc(Oc2ccc(-c3cc([C@@H](O)CO)cc(C(N)=O)n3)cc2)cc1C(F)(F)F` [compound 127, (R)-6-(4-(4-cyano-3-(trifluoromethyl)phenoxy)phenyl)-4-(1,2-dihydroxyethyl) picolinamide], the IC50 is 1.13 ± 0.11 µM. In the case of `NC(=O)c1cc(O)cc(-c2ccc(Oc3ccc(F)cc3)cc2)n1` [compound 136, 6-(4-(4-fluorophenoxy)phenyl)-4-hydroxy picolinamide], the IC50 was greater than 20 µM.

Staying with this assay, now noted: recombinant human Nav1.7 in HEK293 cells; CoroNa Green sodium dye; veratridine + scorpion venom; read-out: Nav1.7 IC50 (μM) ± SEM.
Consider `N#CCCN(c1ccccc1)c1cc(-c2ccc(Oc3ccc(F)cc3)cc2)cc(C(N)=O)n1` [compound 115, 6-((2-cyanoethyl) (phenyl)amino)-4-(4-(4-fluorophenoxy)phenyl)picolinamide], for which the IC50 turned out to be 0.08 ± 0.03 µM. With `CN(c1ccc(C(=O)O)cc1)c1cc(-c2ccc(Oc3ccc(F)cc3)cc2)cc(C(N)=O)n1` [compound 116, 4-((6-carbamoyl-4-(4-(4-fluorophenoxy)phenyl)pyridin-2-yl) (methyl)amino)benzoic acid], the IC50 stood at 2.71 ± 0.73 µM. Same read-out and setting: to `CN(c1ccccc1)c1cc(-c2ccc(Oc3ccc(F)cc3)cc2)cc(C(=O)O)n1` [compound 119, 4-(4-(4-fluorophenoxy)phenyl)-6-(methyl (phenyl)amino) picolinic acid] belongs 2.46 ± 0.8 µM; to `O=C(O)CN(c1ccccc1)c1cc(-c2ccc(Oc3ccc(F)cc3)cc2)cc(C(=O)O)n1` [compound 121, 6-((carboxymethyl) (phenyl)amino)-4-(4-(4-fluorophenoxy)phenyl)picolinic acid], 6.24 ± 0.81 µM. As to `NC(=O)c1cc([C@@H](O)CO)cc(-c2ccc(Oc3cc(Cl)ccc3F)cc2)n1` [compound 123, (R)-6-(4-(5-chloro-2-fluorophenoxy)phenyl)-4-(1,2-dihydroxyethyl) picolinamide], the IC50 was 0.17 ± 0.03 µM. Same read-out and setting: next, `O=C(NC(CO)CO)c1cc(-c2ccc(Oc3ccc(F)cc3)cc2)cc(Cl)n1` [compound 125, 6-chloro-N-(1,3-dihydroxypropan-2-yl)-4-(4-(4-fluorophenoxy)phenyl)picolinamide]: 0.77 ± 0.13 µM; `N#Cc1cccc2c1ccn2-c1cc(-c2ccc(Oc3ccc(F)cc3)cc2)cc(C(=O)O)n1` [compound 126, 6-(4-cyano-1H-indol-1-yl)-4-(4-(4-fluorophenoxy)phenyl) picolinic acid]: 1.05 ± 0.13 µM. Turning to `NC(=O)c1cc(-c2ccc(Oc3ccc(F)cc3)cc2)cc(NC(CO)CO)n1` [compound 128, 6-((1,3-dihydroxypropan-2-yl)amino)-4-(4-(4-fluorophenoxy)phenyl) picolinamide], the IC50 stood at 1.29 ± 0.17 µM. As for `C[C@H](O)[C@@H](O)c1cc(C(N)=O)nc(-c2ccc(Oc3ccc(F)cc3)cc2)c1` [compound 129, 4-((1S,2S)-1,2-dihydroxypropyl)-6-(4-(4-fluorophenoxy)phenyl)picolinamide], the IC50 turned out to be 1.74 ± 0.35 µM. Still for that read-out and setting: to `O=C(O)c1ccc2ccn(-c3cc(C(=O)O)nc(-c4ccc(Oc5ccc(F)cc5)cc4)c3)c2c1` [compound 130, 1-(2-carboxy-6-(4-(4-fluorophenoxy)phenyl)pyridin-4-yl)-1H-indole-6-carboxylic acid] belongs 2.47 ± 0.73 µM. As for `C[C@@H](O)[C@H](O)c1cc(C(N)=O)nc(-c2ccc(Oc3ccc(F)cc3)cc2)c1` [compound 131, 4-((1R,2R)-1,2-dihydroxypropyl)-6-(4-(4-fluorophenoxy)phenyl)picolinamide], the IC50 was found to be 2.78 ± 0.46 µM. The same measure, in the same setting: to `NC(=O)c1cc([C@@H](O)CO)cc(-c2ccc(Oc3ccc(C(F)(F)F)cn3)cc2)n1` [compound 132, (R)-4-(1,2-dihydroxyethyl)-6-(4-((5-(trifluoromethyl)pyridin-2-yl)oxy)phenyl)picolinamide] belongs 2.78 ± 0.75 µM. The same measure, in the same setting: to `NC(=O)c1cc(NC(CO)CO)cc(-c2ccc(Oc3ccc(F)cc3)cc2)n1` [compound 133, 4-((1,3-dihydroxypropan-2-yl)amino)-6-(4-(4-fluorophenoxy)phenyl) picolinamide] belongs 3.08 ± 0.59 µM. With `NC(=O)c1cc(C[C@@H](O)CO)cc(-c2ccc(Oc3ccc(F)cc3)cc2)n1` [compound 134, (R)-4-(2,3-dihydroxypropyl)-6-(4-(4-fluorophenoxy)phenyl)picolinamide], the concentration for half-maximal inhibition (IC50) stood at 3.9 ± 0.34 µM. Turning to `NC(=O)c1cc(C[C@H](O)CO)cc(-c2ccc(Oc3ccc(F)cc3)cc2)n1` [compound 135, (S)-4-(2,3-dihydroxypropyl)-6-(4-(4-fluorophenoxy)phenyl)picolinamide], the IC50 was 7.26 ± 0.34 µM.

With `O=S(=O)(Nc1ccc(-c2cccc([C@H](O)CO)n2)cc1)c1ccc(F)cc1` [compound 137, (S)-N-(4-(6-(1,2-dihydroxyethyl)pyridin-2-yl)phenyl)-4-fluorobenzene sulfonamide], the IC50 is greater than 20 µM. For `NC(=O)c1cc([C@H](O)CO)cc(-c2ccc(Oc3ccc(Cl)cc3F)cc2)n1` [compound 140, (S)-6-(4-(4-chloro-2-fluorophenoxy)phenyl)-4-(1,2-dihydroxyethyl) picolinamide], the IC50 was 0.07 ± 0.01 µM. As to `NC(=O)c1cc([C@@H](O)CO)cc(-c2ccc(Oc3ccc(Cl)cc3F)cc2)n1` [compound 141, (R)-6-(4-(4-chloro-2-fluorophenoxy)phenyl)-4-(1,2-dihydroxyethyl) picolinamide], the IC50 was determined as 0.07 ± 0.01 µM.

Regarding `NC(=O)c1cc([C@@H](O)CO)cc(-c2cccc(Oc3ccc(F)cc3)c2)n1` [compound 142, 4-((R)-1,2-dihydroxy-ethyl)-6-[3-(4-fluoro-phenoxy)-phenyl]-pyridine-2-carboxylic acid amide], the IC50 stood at 5.3 ± 1.6 µM. As to `NC(=O)c1cc(-c2ccc(Oc3ccc(F)cc3)cc2)cc(N(CC(=O)O)c2ccccc2)n1` [compound 143, ({6-Carbamoyl-4-[4-(4-fluoro-phenoxy)-phenyl]-pyridin-2-yl}phenyl-amino)-acetic acid], the IC50 was greater than 20 µM. Take `NC(=O)c1cc(-c2ccc(Oc3ccc(F)cc3)cc2)cc(N(CCC(=O)O)c2ccccc2)n1` [compound 144, 3-({6-Carbamoyl-4-[4-(4-fluoro-phenoxy)-phenyl]-pyridin-2-yl}phenyl-amino)-propionic acid]: the IC50 is greater than 20 µM. On the same count and under the same terms, next, `NC(=O)c1cc(N(CCC(=O)O)c2ccccc2)cc(-c2ccc(Oc3ccc(F)cc3)cc2)n1` [compound 145, 3-({2-Carbamoyl-6-[4-(4-fluoro-phenoxy)-phenyl]-pyridin-4-yl}phenyl-amino)-propionic acid]: 1.25 ± 0.03 µM. Regarding `CN(c1ccccc1)c1cc(-c2ccc(Oc3ccc(C#N)cc3)cc2)cc(C(N)=O)n1` [compound 146, 4-[4-(4-Cyano-phenoxy)-phenyl]-6-(methyl-phenyl-amino)-pyridine2-carboxylic acid amide], the half-inhibitory concentration (IC50) was found to be 0.09 ± 0.004 µM. Take `CN(c1ccccc1)c1cc(C(N)=O)nc(-c2ccc(Oc3ccc(C#N)cc3)cc2)c1` [compound 147, 6-[4-(4-Cyano-phenoxy)-phenyl]-4-(methyl-phenyl-amino)-pyridine-2-carboxylic acid amide]: the IC50 came out at 1.6 ± 0.26 µM. `CN(c1ccccc1)c1cc(-c2ccc(Oc3ccc(C(F)(F)F)cc3)cc2)cc(C(N)=O)n1` [compound 148, 6-(Methyl-phenyl-amino)-4-[4-(4-trifluoromethyl-phenoxy)phenyl]-pyridine-2-carboxylic acid amide]: the half-maximal inhibitory concentration (IC50) stood at 0.25 ± 0.08 µM. `CN(c1ccccc1)c1cc(C(N)=O)nc(-c2ccc(Oc3ccc(C(F)(F)F)cc3)cc2)c1` [compound 149, 4-(Methyl-phenyl-amino)-6-[4-(4-trifluoromethyl-phenoxy)phenyl]-pyridine-2-carboxylic acid amide]: the IC50 lay within 10 to 20 µM. On to `NC(=O)c1cc(N(CCc2nn[nH]n2)c2ccccc2)cc(-c2ccc(Oc3ccc(F)cc3)cc2)n1` [compound 150, 6-[4-(4-Fluoro-phenoxy)-phenyl]-4-{phenyl-[2-(2H-tetrazol-5-yl)-ethyl]-amino}-pyridine-2-carboxylic acid amide], for which the IC50 was 0.46 ± 0.04 µM.

On to `NC(=O)c1cc(-c2ccc(Oc3ccc(F)cc3)cc2)cc(N(CCc2nn[nH]n2)c2ccccc2)n1` [compound 151, 4-[4-(4-Fluoro-phenoxy)-phenyl]-6-{phenyl-[2-(2H-tetrazol-5-yl)-ethyl]-amino}-pyridine-2-carboxylic acid amide], for which the IC50 is 0.16 ± 0.03 µM. As to `O=C(O)c1cc(N(CCc2nn[nH]n2)c2ccccc2)cc(-c2ccc(Oc3ccc(F)cc3)cc2)n1` [compound 152, 6-[4-(4-Fluoro-phenoxy)-phenyl]-4-{phenyl-[2-(2H-tetrazol-5-yl)ethyl]-amino}-pyridine-2-carboxylic acid], the IC50 is 1.87 ± 0.68 µM. Take `O=C(O)c1cc(-c2ccc(Oc3ccc(F)cc3)cc2)cc(N(CCc2nn[nH]n2)c2ccccc2)n1` [compound 153, 4-[4-(4-Fluoro-phenoxy)-phenyl]-6-{phenyl-[2-(2H-tetrazol-5-yl)ethyl]-amino}-pyridine-2-carboxylic acid]: the IC50 is 2.13 ± 0.55 µM.
